“And” between values parts separate entries of the source, which are not always exact repeats. Equal entries are not always repeated.
Each compound was assayed on P. falciparum 3D7 growth, pLDH absorbance (assay: P. falciparum 3D7 growth inhibition, dose response, strain 3D7 (AID 2305)).

Structure (SMILES) | IC50
CN1CCCN(c2ccnc3cc4c(cc23)N(C(=O)c2ccc(Cl)cc2Cl)CC4)CC1 | 810 nM
Cc1cc(N[C@@H](CC(C)C)C(=O)NCc2cccs2)nc(Nc2ccccc2)n1 | 1130 nM
O=C(Nc1cccc(-c2cc(-c3c(Cl)cccc3Cl)no2)c1)c1cnc2ccccc2c1 | 1100 nM
COc1cc(F)c2ncc(Cl)c([C@@H](O)CN3CCC(NCc4cc5c(cn4)OCCO5)CC3)c2c1 | 100 nM
CC(C)C[C@@H](NC(=O)NC1CCC(CCN2[C@@H]3CC[C@H]2CC(OC(=O)C(CO)c2ccccc2)C3)CC1)C(O)(c1ccccc1)c1ccccc1 (stereo not given in full) | 1070 nM
CC(C)CN1CCCN(Cc2cccc(NC(=O)c3ccc(-c4ccccc4)cc3)c2)CC1 | 880 nM
CCCC(=O)Nc1ccc(Nc2nc(C)cc(N3CCCC3)n2)cc1 | 1490 nM
Cc1cccc2c(C3CCN(CC4CCC(NC(=O)/C=C/c5ccc(Cl)c(Cl)c5)CC4)CC3)c[nH]c12 (stereo not given) | 1030 nM
COc1ccc(-n2cc(C(=O)c3cc(Br)ccc3O)cc(C#N)c2=O)cc1Cl | 790 nM
Cc1ccc(C[C@@H](C)NC[C@H](O)c2cccc(C(F)(F)F)c2)cc1 | 880 nM and 710 nM
COc1ccc(Nc2nccc(N3CCC(NC(=O)c4cc5ccccc5s4)C3)n2)cc1 (stereo not given) | 760 nM
O=C(Nc1ccnc(N2CCCN(Cc3cccc(O)c3)CC2)c1)c1ccc(F)cc1 | 1480 nM
O=C(Nc1cccc(Cl)c1)OC1CCCN2CCCCC12 (stereo not given) | 1020 nM
CN(c1ccc(NC(=O)c2cccc(F)c2)cc1)C1CCCN(Cc2cccc(O)c2)C1 (stereo not given) | 1300 nM
O=C(NC1CCCc2ccccc21)[C@@H]1CCCN1C(=O)c1ccc(O)c(-c2cccc([N+](=O)[O-])c2)c1 (stereo not given in full) | 680 nM
Cc1cc(-c2cnc(N)c(-c3ccc(N4CCN(C)CC4)cc3)c2)cc(C)c1O | 1170 nM
CC(C)CCN1CCC(Oc2ccc(NC(=O)c3cccs3)cc2Cl)C1 (stereo not given) | 1100 nM
O=C(Nc1ccc(Oc2cccnc2)cc1)C1CCN(Cc2cc(Cl)ccc2O)CC1 | 1350 nM
CC(C)CCNCC(O)Cn1c2ccc(Cl)cc2c2cc(Cl)ccc21 (stereo not given) | 450 nM
COc1cccc2c(NN=Cc3ccc(Cl)cc3)ccnc12 | 810 nM
O=C(NOCc1ccccc1)c1cc(Cl)ccc1O | 1100 nM
CC(C)COc1ccc(Cl)cc1Cc1ccc(-c2nc3ccc(C(F)(F)F)cc3[nH]2)o1 | 850 nM
CCCCCCN1CCC(CNCc2cccc(Cl)c2)CC1 | 1220 nM
CN(CCN(C)CC(O)c1ccc(Cl)c(Cl)c1)CC(O)c1ccc(Cl)c(Cl)c1 (stereo not given) | 1100 nM

Structure (SMILES) | IC50
O=C(Nc1cccc(C(F)(F)F)c1)N1CCOC(CCN2CCC3(CCc4ccccc43)CC2)(c2ccc(Cl)c(Cl)c2)C1 (stereo not given) | 740 nM
COc1ccc(CNCCc2cccs2)cc1-c1ccc(S(=O)(=O)NCCN2CCCC2)s1 | 880 nM
CCCn1c(Sc2ccc(C#N)c([N+](=O)[O-])c2)nnc1-c1cc(OC)cc(OC)c1 | 720 nM
c1ccc(COc2ccc(COc3ccc(Cn4ccnc4)cc3)cc2)cc1 | 950 nM
Cc1cc(NC(=O)Nc2ccc(I)c(OCCN(C)C)c2)ccc1Br | 620 nM
Cc1cc(N(C)C)nc(Nc2ccc(NC(=O)c3ccccc3Cl)cc2)n1 | 1020 nM
COC(=O)c1ccc(C2OC3(C(=O)c4ccccc4C3=O)C(OC)=C2Cl)cc1C(C)=O (stereo not given) | 550 nM
COc1ccc2cc(C=NNc3nc4ccccc4[nH]3)c(Cl)nc2c1 | 650 nM
CC(C)(CNC(=O)[C@@H]1CCCN(Cc2ccc(Cl)cc2)C1)c1nc(-c2ccc(Cl)c(O)c2)c(-c2ccncc2)[nH]1 | 940 nM
CCNc1cc(C(=O)N[C@@H](Cc2ccccc2)[C@H](O)CNC2CCC(C)(C)C2)cc(N2CCCCS2(=O)=O)c1 (stereo not given in full) | 140 nM
O=C(Nc1ccc(OC2CCN(Cc3ccccc3)CC2)c(Cl)c1)c1ccco1 | 410 nM
COc1ccc2ncc(F)c(CCN3[C@@H]4CC[C@H]3CC(NCc3cc5c(cn3)OCS5)C4)c2n1 (stereo not given in full) | 920 nM
Nc1ncc(-c2ccsc2)cc1-c1nc2ccccc2[nH]1 | 850 nM
COc1ccc(NC(=O)Nc2cc(C)nc3ccccc23)cc1Cl | 690 nM
C[C@H]1CN(Cc2cccc(-c3cc(CNC(=O)c4cccc(C(=O)c5ccc(Cl)c(Cl)c5)c4)ccc3F)c2)CCN1 | 1140 nM
O=C(CCNc1ccnc(NCCc2ccccc2)n1)Nc1ccccc1 | 840 nM
CC(C)(C)c1ccc2nc(-c3ccc(C(=O)NCCCc4ccccc4)cc3)[nH]c2c1 | 800 nM
CCN(CC)CCN(Cc1ccc(-c2ccc(Cl)cc2)cc1)C(=O)Cn1c(CCc2cccc(F)c2F)nc(=O)c2ccccc21 | 770 nM
O=c1cc(NCCCNCc2sc(Br)c(Br)c2Br)[nH]c2ccccc12 | 1010 nM
O=C(Nc1cccc(OC2CCN(Cc3ccc(F)cc3)CC2)c1)c1ccc(C(F)(F)F)cc1 | 950 nM
OC(c1ccc(Cl)cc1)(c1ccc(Cl)cc1)C(c1ccc(Cl)cc1)n1ccnc1 (stereo not given) | 860 nM
Cc1cccn2c(=O)c3cc(C(=O)NC(C)c4ccccc4)c(=N)n(CCN4CCOCC4)c3nc12 (stereo not given) | 820 nM
CCOC(=O)/C(=N\OC(C(=O)OC(C)(C)C)c1ccccc1)c1csc(NC(c2ccccc2)(c2ccccc2)c2ccccc2)n1 (stereo not given) | 1110 nM
COc1cc2nc(N3CCC(CNC(=O)c4ccc(-c5ccc(C#N)cc5C)cc4)CC3)nc(N)c2cc1OC | 180 nM

Structure (SMILES) | IC50
CCCCCCCC1CC(CC(=O)Nc2ccnc3ccc(OC)cc23)CN1 (stereo not given) | 510 nM
CC(C)(C)NCc1cc(Nc2ccnc3cc(Cl)ccc23)ccc1F | 30 nM
Cc1ccc2c(OCCN3CCC(Cc4ccc5c(c4)NC(=O)CO5)CC3)cc(F)cc2n1 | 750 nM
COc1cc(F)c2ncc(Cl)c(CCN3CCC(NCc4ccc5c(n4)NC(=O)CS5)CC3)c2c1 | 480 nM
Cc1onc(-c2ccccc2)c1-c1nc(NC2CCCC(C)C2)no1 (stereo not given) | 840 nM
NC(N)=NC(=O)Nc1cc(Br)c(Br)c(Br)c1 | 810 nM
COc1ccc(Cn2c(Nc3cccc(C(F)(F)F)c3)nc3ccc(C(=O)NCCN4CCCC4)cc32)cc1Cl | 750 nM
Cn1c(Nc2nnc(C3CC3)s2)nc2cc(Nc3ccnc(Nc4cccc(CS(C)(=O)=O)c4)n3)ccc21 | 680 nM
O=C(Nc1cccc(-c2cccc(-c3nc4ccccc4[nH]3)c2)c1)Nc1ccc(Cl)c(Cl)c1 | 130 nM
CCOc1ccccc1NC(=O)Nc1ccc2c(c1)CCN(C1CCC1)CC2 | 1110 nM
CCc1c(C)nc(-n2nc(C)cc2NC(=O)C2c3ccccc3Oc3ccccc32)[nH]c1=O | 950 nM
O=C(NC1CCN(Cc2ccccc2)CC1)c1ccc(-c2nc3cc(Cl)c(Cl)cc3[nH]2)c(F)c1 | 740 nM
O=C(NC1CC1)c1ccc2cc(C(=O)N3Cc4ccccc4C(c4ccccc4)C3)ccc2c1 (stereo not given) | 910 nM
O=c1cc(NCCCNCc2sc(Br)nc2Br)[nH]c2ccccc12 | 870 nM
O=C(NCC(CCCN1CCC(c2c[nH]c3ccccc23)CC1)c1ccccc1)Nc1ccc(Cl)c(Cl)c1 (stereo not given) | 790 nM
O=[N+]([O-])c1cccc(CNCC2CCC(CNCc3cccc([N+](=O)[O-])c3)CC2)c1 (stereo not given) | 140 nM
CC(=O)N(C)c1cccc(C(=O)Nc2ccc(-c3cccc(-c4nc5ccc(C(F)(F)F)cc5[nH]4)c3)cc2)c1 | 720 nM
CCN(C(=O)CSc1cc(C)c2cc(C)cc(C)c2n1)C1CCS(=O)(=O)C1 (stereo not given) | 670 nM
CCc1sc(CN(CCCNc2cc(=O)c3ccccc3[nH]2)Cc2sc(CC)c(Br)c2-c2ccsc2)c(-c2ccsc2)c1Br | 90 nM
COc1ccc2nccc(CCN3C[C@H](CNCc4ccc5c(n4)NC(=O)CS5)[C@H](O)C3)c2n1 | 1460 nM
NC1=NC(CCc2ccccc2)N(c2ccccc2)C(N)=N1 (stereo not given) | 80 nM
O=C(Nc1ccccc1F)NC1CCN(c2ccnc(Nc3ccc(F)cc3)n2)C1 (stereo not given) | 850 nM
